From ChEMBL document CHEMBL5053507, “Oxadiazepinone HBV capsid assembly modulators” (Bioorg Med Chem Lett, 2021)
≈ marks a conversion by molar mass, not a printed value. Each block holds one molecule with its values, some of them ahead of it.

Tests used:
[1] = Metabolic stability in human liver microsomes assessed as intrinsic clearance; format: ADME, Microsome; conditions: read-out: CLH
[2] = Thermodynamic solubility of the compound at pH 7; format: physicochemical; conditions: buffer, read-out: Therm_solubility
[3] = Clearance in CD1 mouse at 2 mg/kg, iv; format: ADME, organism-based; conditions: in vivo
[4] = Volume of distribution at steady state in CD1 mouse at 2 mg/kg, iv; format: ADME, organism-based; conditions: in vivo, read-out: Vdss
[5] = Half life in CD1 mouse at 2 mg/kg, iv; format: ADME, organism-based; conditions: in vivo
[6] = Clearance in Sprague-Dawley rat at 0.6 mg/kg, iv; format: ADME, organism-based; conditions: in vivo
[7] = Volume of distribution at steady state in Sprague-Dawley rat at 0.6 mg/kg, iv; format: ADME, organism-based; conditions: in vivo, read-out: Vdss
[8] = Half life in Sprague-Dawley rat at 0.6 mg/kg, iv; format: ADME, organism-based; conditions: in vivo
[9] = Solubility of the compound; format: physicochemical
[10] = Clearance in Sprague-Dawley rat at 5 mg/kg, po or 1.25 mg/kg, iv relative to liver blood flow; format: ADME, organism-based; conditions: in vivo
[11] = Clearance in Mongrel dog at 2.5 mg/kg, po or 1 mg/kg, iv relative to liver blood flow; format: ADME, organism-based, Canis lupus familiaris; conditions: in vivo
[12] = Volume of distribution at steady state in Sprague-Dawley rat at 5 mg/kg, po or 1.25 mg/kg, iv; format: ADME, organism-based; conditions: in vivo
[13] = Volume of distribution at steady state in Mongrel dog at 2.5 mg/kg, po or 1 mg/kg, iv; format: ADME, organism-based, Canis lupus familiaris; conditions: in vivo
[14] = Half life in Sprague-Dawley rat at 5 mg/kg, po or 1.25 mg/kg, iv; format: ADME, organism-based; conditions: in vivo
[15] = Half life in Mongrel dog at 2.5 mg/kg, po or 1 mg/kg, iv; format: ADME, organism-based, Canis lupus familiaris; conditions: in vivo
[16] = Cmax in Sprague-Dawley rat at 5 mg/kg, po; format: ADME, organism-based; set-up: dose 5 mg/kg, route po; conditions: in vivo
[17] = Cmax in Mongrel dog at 2.5 mg/kg, po; format: ADME, organism-based, Canis lupus familiaris; set-up: dose 2.5 mg/kg, route po; conditions: in vivo
[18] = Tmax in Sprague-Dawley rat at 5 mg/kg, po; format: ADME, organism-based; conditions: in vivo
[19] = Tmax in Mongrel dog at 2.5 mg/kg, po; format: ADME, organism-based, Canis lupus familiaris; conditions: in vivo
[20] = AUC (0 to infinity) in Sprague-Dawley rat at 5 mg/kg, po; format: ADME, organism-based; set-up: time infinity, dose 5 mg/kg, route po; conditions: in vivo
[21] = AUC (0 to infinity) in Mongrel dog at 2.5 mg/kg, po; format: ADME, organism-based, Canis lupus familiaris; set-up: time infinity, dose 2.5 mg/kg, route po; conditions: in vivo
[22] = Ratio of AUC (0 to 24 hrs) in liver to plasma in Sprague-Dawley rat at 5 mg/kg, po or 1.25 mg/kg, iv; format: ADME, organism-based; conditions: read-out: Ratio AUC
[23] = Oral bioavailability in Sprague-Dawley rat at 5 mg/kg; format: ADME, organism-based; conditions: in vivo
[24] = Oral bioavailability in Mongrel dog at 2.5 mg/kg; format: ADME, organism-based, Canis lupus familiaris; conditions: in vivo
[25] = Clearance in CD1 mouse at 10 mg/kg, po or 2.5 mg/kg, iv relative to liver blood flow; format: ADME, organism-based; conditions: in vivo
[26] = Volume of distribution at steady state in CD1 mouse at 10 mg/kg, po or 2.5 mg/kg, iv; format: ADME, organism-based; conditions: in vivo
[27] = Half life in CD1 mouse at 10 mg/kg, po or 2.5 mg/kg, iv; format: ADME, organism-based; conditions: in vivo
[28] = Cmax in CD1 mouse at 10 mg/kg, po; format: ADME, organism-based; set-up: dose 10 mg/kg, route po; conditions: in vivo
[29] = Tmax in CD1 mouse at 10 mg/kg, po; format: ADME, organism-based; conditions: in vivo
[30] = AUC (0 to infinity) in CD1 mouse at 10 mg/kg, po; format: ADME, organism-based; set-up: time infinity, dose 10 mg/kg, route po; conditions: in vivo
[31] = Oral bioavailability in CD1 mouse at 10 mg/kg; format: ADME, organism-based; conditions: in vivo
[32] = target: Core antigen (Hepatitis B virus) (UniProt Q03732); assay: Modulation of capsid assembly in HBV infected in human HepG2.2.15 cells assessed as fold shift in inhibition of viral DNA replication in presence of 40% normal human serum incubated for 3 days followed by replacement with fresh medium containing compound and measured after 3 days by QuantiGene assay; format: cell-based; conditions: time 6.0 day
Cytochrome P450 [33] = assay: Induction of CYP (unknown origin); format: ADME, protein assay; conditions: human
Cytochrome P450 [34] = assay: Inhibition of CYP (unknown origin); format: ADME, protein assay; conditions: human

Core antigen (Hepatitis B virus), sequence (Q03732 as listed by the source): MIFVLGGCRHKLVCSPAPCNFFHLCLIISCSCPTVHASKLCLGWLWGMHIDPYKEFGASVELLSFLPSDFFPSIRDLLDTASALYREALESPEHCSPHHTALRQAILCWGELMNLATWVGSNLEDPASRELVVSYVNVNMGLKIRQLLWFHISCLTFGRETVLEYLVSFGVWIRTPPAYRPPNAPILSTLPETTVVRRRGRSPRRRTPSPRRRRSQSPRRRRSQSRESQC

- CLint scaled [1]: 192 mL/min/kg
Compound: O=C(Nc1cccc(Cl)c1)N1CCc2[nH]nc(-c3ccccc3)c2C1

- CLint scaled [1]: 9 mL/min/kg
Compound: CN1O[C@H](CO)Cn2nc3c(c2C1=O)CN(C(=O)Nc1ccc(F)c(Cl)c1)CC3

- CLint scaled [1]: < 5 mL/min/kg
- solubility thermodynamic [2]: > 200 µM
- clearance [3]: 39 mL/min/kg
- Vd [4]: 2.2 L/kg
- half-life [5]: 1.5 h
- clearance [6]: 47 mL/min/kg
- Vd [7]: 2.1 L/kg
- half-life [8]: 0.7 h
Compound: Cc1cc(NC(=O)N2Cc3c(nn4c3C(=O)N(C)O[C@@H](CO)C4)C[C@H]2C)ccc1F

- CLint scaled [1]: 38 mL/min/kg
Compound: O=C(Nc1cccc(Cl)c1)N1CCc2[nH]nc(C(=O)N3CCCCO3)c2C1

- CLint scaled [1]: 7 mL/min/kg
Compound: CN1O[C@@H](CO)Cn2nc3c(c2C1=O)CN(C(=O)Nc1ccc(F)c(Cl)c1)CC3

- solubility [9]: 45 µM (≈ 17.2 µg/mL)
Compound: C[C@H]1Cc2[nH]nc(-c3cscn3)c2CN1C(=O)Nc1ccc(F)c(C#N)c1

- CLint scaled [1]: < 5 mL/min/kg
- solubility thermodynamic [2]: 22 µM (≈ 10.8 µg/mL)
- CLH [10]: 20%
- CLH [11]: 9%
- Vdss [12]: 2 L/kg
- Vdss [13]: 1.2 L/kg
- half-life ([14]; Sprague-Dawley): 1.8 h
- half-life [15]: 5.6 h
- Cmax ([16]; Sprague-Dawley, read-out: Cmax): 533 ng/mL
- Cmax [17]: 1170 ng/mL
- Tmax ([18]; Sprague-Dawley, read-out: Tmax): 1 h
- Tmax [19]: 0.75 h
- AUC(0-inf) [20]: 3840 ng·h/mL
- AUC(0-inf) [21]: 10600 ng·h/mL
- Kp [22]: 3.8
- bioavailability [23]: 71%
- bioavailability [24]: 70%
Compound: C[C@@H]1Cc2nn3c(c2CN1C(=O)Nc1ccc(F)c(C#N)c1)C(=O)N(C)O[C@@H](COCC(F)F)C3

- CLint scaled [1]: 214 mL/min/kg
Compound: CCCC(=O)c1n[nH]c2c1CN(C(=O)Nc1cccc(Cl)c1)CC2

- CLint scaled [1]: 55 mL/min/kg
Compound: CCON(C)C(=O)c1n[nH]c2c1CN(C(=O)Nc1cccc(Cl)c1)CC2

- CLint scaled [1]: 14 mL/min/kg
- solubility thermodynamic [2]: 45 µM (≈ 23.4 µg/mL)
Compound: C[C@@H]1Cc2nn3c(c2CN1C(=O)Nc1ccc(F)c(C#N)c1)C(=O)N(C)O[C@@H](C(=O)N(C)CC(F)F)C3

- CLint scaled [1]: 65 mL/min/kg
Compound: CC(C)ON(C)C(=O)c1n[nH]c2c1CN(C(=O)Nc1cccc(Cl)c1)CC2

- CLint scaled [1]: 7.2 mL/min/kg
- solubility thermodynamic [2]: 172 µM (≈ 81.1 µg/mL)
- clearance [3]: 58 mL/min/kg
- Vd [4]: 5.3 L/kg
- half-life [5]: 1.6 h
- clearance [6]: 24 mL/min/kg
- Vd [7]: 2.3 L/kg
- half-life [8]: 1.4 h
Compound: C[C@@H]1Cc2nn3c(c2CN1C(=O)Nc1ccc(F)c(C(F)(F)F)c1)C(=O)N(C)O[C@@H](CO)C3

- CLint scaled [1]: 19 mL/min/kg
- solubility thermodynamic [2]: 176 µM (≈ 81.8 µg/mL)
Compound: C[C@@H]1Cc2nn3c(c2CN1C(=O)Nc1ccc(F)c(Cl)c1)C(=O)N(C)O[C@@H](CN(C)C)C3

- CLint scaled [1]: 33 mL/min/kg
Compound: CON(C)C(=O)c1n[nH]c2c1CN(C(=O)Nc1cccc(Cl)c1)CC2

- CLint scaled [1]: 31 mL/min/kg
- solubility thermodynamic [2]: 161 µM (≈ 63.4 µg/mL)
Compound: CN(OCCO)C(=O)c1n[nH]c2c1CN(C(=O)Nc1cccc(Cl)c1)CC2

- CLint scaled [1]: 11 mL/min/kg
- solubility thermodynamic [2]: 183 µM (≈ 80.1 µg/mL)
Compound: C[C@@H]1Cc2nn3c(c2CN1C(=O)Nc1ccc(F)c(Cl)c1)C(=O)N(C)O[C@@H](CO)C3

- CLint scaled [1]: 8 mL/min/kg
- solubility thermodynamic [2]: 183 µM (≈ 77.6 µg/mL)
Compound: CN1OC(CO)Cn2nc3c(c2C1=O)CN(C(=O)Nc1ccc(F)c(Cl)c1)CC3 (racemic)

- CLint scaled [1]: < 5 mL/min/kg
- solubility thermodynamic [2]: 80 µM (≈ 31.9 µg/mL)
Compound: C[C@@H]1Cc2nn3c(c2CN1C(=O)Nc1ccc(F)c(C#N)c1)C(=O)N(C)OCC3

- CLint scaled [1]: 87 mL/min/kg
Compound: CCN(C)C(=O)c1n[nH]c2c1CN(C(=O)Nc1cccc(Cl)c1)CC2

- CLint scaled [1]: 8 mL/min/kg
- solubility thermodynamic [2]: 183 µM (≈ 74.3 µg/mL)
Compound: CN(OC1COC1)C(=O)c1n[nH]c2c1CN(C(=O)Nc1cccc(Cl)c1)CC2

Compound: C[C@@H]1Cc2nn3c(c2CN1C(=O)Nc1ccc(F)c(C#N)c1)C(=O)N(C)O[C@@H](CF)C3
- CLint scaled [1]: < 5 mL/min/kg
- solubility thermodynamic [2]: 63 µM (≈ 27.1 µg/mL)
- CLH [10]: 93%
- CLH [25]: 21%
- CLH [11]: 11%
- Vdss [12]: 2.5 L/kg
- Vdss [26]: 6.3 L/kg
- Vdss [13]: 1.5 L/kg
- t1/2 ([14]; po, 5 mg/kg): 0.4 h
- half-life [27]: 7.9 h
- half-life [15]: 5.4 h
- Cmax [16]: 20.1 ng/mL
- Cmax [28]: 1420 ng/mL
- Cmax [17]: 1310 ng/mL
- Tmax ([18]; po, 5 mg/kg): 0.5 h
- Tmax [29]: 0.4 h
- Tmax [19]: 1 h
- AUC(0-inf) [20]: 71.8 ng·h/mL
- AUC(0-inf) [30]: 4340 ng·h/mL
- AUC(0-inf) [21]: 9550 ng·h/mL
- bioavailability [23]: 7.4%
- bioavailability [31]: 66%
- bioavailability [24]: 79%
- fold change (FC) [32]: 2
- Activity (Cytochrome P450 [33]): Not Active
- inhibition (INH) (Cytochrome P450 [34]): Not Active

- CLint scaled [1]: 171 mL/min/kg
Compound: CCOC(=O)c1n[nH]c2c1CN(C(=O)Nc1cccc(Cl)c1)CC2

- CLint scaled [1]: < 5 mL/min/kg
- solubility thermodynamic [2]: > 200 µM
- clearance [3]: 96 mL/min/kg
- Vd [4]: 4 L/kg
- half-life [5]: 1.2 h
- clearance [6]: 66 mL/min/kg
- Vd [7]: 1.9 L/kg
- half-life [8]: 0.5 h
Compound: C[C@@H]1Cc2nn3c(c2CN1C(=O)Nc1ccc(F)c(C#N)c1)C(=O)N(C)O[C@@H](CO)C3
